Assay [1] relates to L02 cells. In words: MTS cell proliferation, normal liver cells. Type of assay: cell-based. The conditions noted are these: L02, normal hepatic cells, 72 hours. The protocol:
[…] After culture at 37° C., 5% CO2 for 72 hours, MTS reagent (Promega Corporation) were added for further culture for 2-4 h.

In assay [2] the test system is Ba/F3-Tpr-Met cells. The assay is described as follows: In vitro antitumor activity, MTS cell proliferation. Type of assay: cell-based. The conditions noted are these: pre-B cell, 72 hours. The protocol:
(§1) Method: 14 cell lines (MKN-45 cells, MHCC97-L cells, MHCC97-H cells, HLE cells, HepG2 cells, 7721 cells, L02 cells, A375 cells, H460 cells, A549 cells, SK-N-SH cells, MCF-7 cells, K562 cells, and Ba/F3-Tpr-Met cells (pre-B cells which are malignantly transformed by the c-Met constitutive active mutant Tpr-Met) were seeded into 96-well plate at 1×10^4 cells/well, and each well was added with 150 μl DMEM medium (purchased from Invitrogen) containing 10% fetal bovine serum (purchased from Hyclone). When cell adherent was observed, different concentrations of 2-indolone derivatives (concentrations at 0.1-10 μM) were added, in addition to the negative control (vehicle control group) and blank control (medium group). After culture at 37° C., 5% CO2 for 72 hours, MTS reagent (Promega Corporation) were added for further culture for 2-4 h.

Assay [3] concerns K562 cells. The assay is described as above. The format is cell-based. The conditions noted are these: K562, leukemia, 72 hours. The protocol:
as §1

The test system of assay [4] is MCF-7 cells. Described as above. The format is cell-based. The conditions noted are these: MCF-7, breast cancer, 72 hours. The protocol:
as §1

In assay [5] the test system is H460 cells. The description is as above. Type of assay: cell-based. The conditions noted are these: H460, lung cancer, 72 hours. The protocol: as §1
Assay [6] relates to MKN-45 cells. The assay is described as above. Type of assay: cell-based. The conditions noted are these: MKN-45, gastric cancer, 72 hours. The protocol:
as §1

Assay [7] concerns A375 cells. Described as above. The format is cell-based. The conditions noted are these: A375, skin cancer, 72 hours. The protocol: as §1
In assay [8] the test system is HLE cells. The description is as above. The format is cell-based. The conditions noted are these: hepatocellular cancer, 72 hours. The protocol: as §1
The test system of assay [9] is HepG2 cells. Described as above. The format is cell-based. The conditions noted are these: HepG2, hepatocellular cancer, 72 hours. The protocol:
as §1

The subject of assay [10] is MHCC97-L cells. Described as above. The conditions noted are these: hepatocellular cancer, 72 hours. Type of assay: cell-based. The protocol: as §1
Assay [11] has as its system SK-N-SH cells. The description is as above. The format is cell-based. The conditions noted are these: neuroblastoma, 72 hours. The protocol:
as §1

Assay [12] has as its system A549 cells. The assay is described as above. The format is cell-based, human. The conditions noted are these: A549, lung cancer, 72 hours. The protocol:
as §1

The test system of assay [13] is MHCC97-H cells. Described as above. The format is cell-based, human. The conditions noted are these: hepatocellular cancer, 72 hours. The protocol: as §1
Assay [14] deals with protein tyrosine kinase (PTK). The assay is described as follows: PTK activity assay with mouse brain tissue extract (ELISA, OD 492 nm). Type of assay: biochemical. The conditions noted are these: at 400 μM. The protocol: Tyrosine kinase buffer: 10 mL 1M HEPES (pH 7.5), 0.4 mL 5% BSA/PBS, 0.2 mL 0.1M Na3VO4, and 1 mL 5M NaCl were added to 88.4 mL double distilled water (DDW) (HEPES: Amresco; Na3VO4: Sigma).
Extraction of tissue extract PTK: mouse brain tissue was quickly removed and weighed, followed by addition of five-fold volumes of pre-cooled homogenization buffer for homogenization. After centrifugation at 4° C., 1,000 g for 10 min, nuclei and cell debris were removed. The supernatant S1 was collected and centrifuged at 4° C., 10,000 g for 20 min, and then the supernatant S2 was collected. The precipitate P2, which represents the crude membrane protein fraction, was retained. S2 included cytoplasmic protein, and was used for testing protein tyrosine kinase (PTK) activity. In the detection of the membrane protein fraction, two-fold volumes of lysis buffer was added to P2, and the resultant was placed on ice for 10 min and centrifuged at 4° C., 10,000 g for 10 min. The supernatant S3, which represents the crude membrane protein including soluble membrane protein, was collected for testing PTK activity. Protein content in cytoplasm or membrane protein was detected by using BCA protein concentration kit (purchased from Beyotime Institute of Biotechnology). The tissue extract was stored at −70° C.
Coating of 96-well plate: PTK substrate was dissolved and added in an amount of 100 μl to each well. The plate was covered with its lid, and incubated at 4° C. overnight (10-12 hours). Then it was washed with 200 μl elution buffer once, and dried at 37° C. for 2 h. After that, it was washed with 10 mM PBS once, dried at room temperature, and then stored at 4° C. for further use.
Groups: blank control: 80 μl 1× tyrosine kinase buffer containing ATP+20 μl 1× tyrosine kinase buffer; negative control: 80 μl 1× tyrosine kinase buffer containing ATP+10 μl 1× tyrosine kinase buffer+7 μl tissue extract+3 μl 1× tyrosine kinase buffer; positive control: 80 μl 1× tyrosine kinase buffer containing ATP+10 μl Gefitinib+7 μl tissue extract+3 μl 1× tyrosine kinase buffer (first, the positive drug was allowed to interact with the tyrosine kinase tissue extract at room temperature for 10 min, and meanwhile the tissue extract for the negative control group was also placed at room temperature for 10 min, and then 80 μl 1× tyrosine kinase buffer containing ATP was added to respective groups); vehicle control: 80 μl 1× tyrosine kinase buffer containing ATP+10 μl DMSO+7 μl tissue extract+3 μl 1× tyrosine kinase buffer; drugs to be screened: 80 μl 1× tyrosine kinase buffer containing ATP+10 μl drug to be tested +7 μl tissue extract+3 μl 1× tyrosine kinase buffer.
PTK activity assay: 1× tyrosine kinase buffer was prepared by evenly mixing 1 mL (10×) tyrosine kinase buffer with 9 mL DDW. The tissue extract was diluted with 1× tyrosine kinase buffer appropriately, mixed with it gently and evenly, and placed on ice. ATP stock solution was dissolved by evenly mixing 48 μl ATP stock solution with 1 mL 1× tyrosine kinase buffer, and placed on ice. The microplate reader was added in respective wells with the groups formulated as above, covered with the lid, and incubated at room temperature for 30 min. The microplate reader was washed with 200 μl elution buffer and tapped until the residual buffer was removed, and this procedure was repeated for five times. To each well, 100 μl antibody diluent (antibody elution buffer diluted at a ratio of 1:2000) was added. The reader was covered with the lid, and incubated at room temperature for 30 min. OPD solution was prepared by addition of 4 mg OPD into a mixture of 4.86 mL 0.1 mol/L citric acid solution and 5.14 mL 0.2 mol/L Na2HPO4 solution, followed by addition of 50 μl 30% H2O2 to allow for complete dissolution, and then was protected from light. The antibody solution was removed. The reader was washed with 200 μl elution buffer and tapped until the residual buffer was removed, and this procedure was repeated for five times.

pIC50: −log10 of the molar value.

Regarding `O=C1Nc2ccc(S(=O)(=O)Nc3ccc4ccccc4c3)cc2C1=Cc1nc2ccccc2[nH]1` [Indo 1, 3-(1H-benzimidazol-2-methylene)-5-(β-naphthylaminosulfo)-2-indolone], the pIC50 in assay [1] is 4.61; in assay [2], 5.27; in assay [3], 5.52; in assay [4], 5.76; in assay [5], 5.81; in [6], 5.71. The negative logarithm of the IC50 (pIC50) is 5.50 in [7]; 5.20 in assay [8]; 5.19 in [9]; 5.81 in assay [10]; 5.87 in assay [11]; 5.54 in [12]. Besides, in assay [13], the negative logarithm of the IC50 (pIC50) was 5.86. In addition, in [14], the “Inhibition rate on tyrosine kinase” value is 51.2%.

`O=C1Nc2ccc(S(=O)(=O)Nc3ccc(F)c(Cl)c3)cc2C1=Cc1nc2ccccc2[nH]1` [Indo 2, 3-(1H-benzimidazol-2-methylene)-5-(3-chloro-4-fluorophenylaminosulfo)-2-indolone]: the pIC50 was 4.63 in assay [1]; 5.23 in assay [2]; 5.49 in [3]; 5.71 in assay [4]; 5.75 in assay [5]; 5.67 in assay [6]. In addition, the negative-log IC50 (pIC50) is 5.61 in [7]; 5.17 in assay [8]; 5.16 in assay [9]; 5.73 in assay [10]; 5.75 in assay [11]; 5.50 in assay [12]. In [13], this molecule showed a pIC50 of 5.78. The “Inhibition rate on tyrosine kinase” value in [14] is reported as 45.2%.

In the case of `CN(c1ccccc1)S(=O)(=O)c1ccc2c(c1)C(=Cc1nc3ccccc3[nH]1)C(=O)N2` [Indo 3, 3-(1H-benzimidazol-2-methylene)-5-(N-methylphenylaminosulfo)-2-indolone], the pIC50 in [1] was 4.65; in assay [2], 5.41; in assay [3], 5.68; in assay [4] it was 6.02; in assay [5], 5.98; in [6], 5.89. Also, the pIC50 was 5.83 in assay [7]; 5.33 in assay [8]; 5.32 in [9]; 5.95 in [10]; 6.07 in assay [11]; 5.81 in assay [12]. Further, in assay [13], the pIC50 is 6.09. In addition, the “Inhibition rate on tyrosine kinase” value in [14] is 55.9%.

As for `O=C1Nc2ccc(S(=O)(=O)NC3CCCCC3)cc2C1=Cc1nc2ccccc2[nH]1` [Indo 4, 3-(1H-benzimidazol-2-methylene)-5-(cyclohexylaminosulfo)-2-indolone], the pIC50 in [1] was 4.57; in assay [2], 5.60; in assay [3] it was 5.87; in [4], 5.84; in assay [5], 6.11; in [6], 6.03. Also, the pIC50 in assay [7] is 6.01; in [8], 5.45; in assay [9], 5.43; in [10], 6.19; in [11], 6.27; in [12], 5.63. Also, the pIC50 in assay [13] is 6.27. Besides, the “Inhibition rate on tyrosine kinase” value in assay [14] is recorded as 60.7%.

For `O=C1Nc2ccc(S(=O)(=O)Nc3ccc(Cl)cc3)cc2C1=Cc1nc2ccccc2[nH]1` [Indo 6, 3-(1H-benzimidazol-2-methylene)-5-(4-chlorophenylaminosulfo)-2-indolone], the pIC50 in assay [1] was 4.64; in [2], 5.38; in assay [3] it was 5.66; in assay [4], 5.95; in assay [5], 6.03; in assay [6] it was 5.86. In addition, the negative-log IC50 (pIC50) in [7] is 5.78; in assay [8] it was 5.31; in [9], 5.29; in assay [10] it was 5.97; in assay [11] it was 5.97; in [12], 5.70. In addition, the pIC50 in [13] is 6.04. The “Inhibition rate on tyrosine kinase” value in [14] is listed as 55.0%.

Take `O=C1Nc2ccc(S(=O)(=O)Nc3ccc(CCO)cc3)cc2C1=Cc1nc2ccccc2[nH]1` [Indo 7, 3-(1H-benzimidazol-2-methylene)-5-(4-hydroxyethylphenylaminosulfo)-2-indolone]: the negative-log IC50 (pIC50) is 4.59 in [1]; 5.51 in assay [2]; 5.78 in [3]; 6.08 in assay [4]; 6.04 in assay [5]; 5.95 in assay [6]. Moreover, the pIC50 in assay [7] was 5.91; in assay [8], 5.36; in assay [9], 5.37; in [10], 6.01; in assay [11] it was 6.17; in [12], 5.89. This molecule also had a negative-log IC50 (pIC50) in assay [13] of 6.16. Besides, in assay [14], the “Inhibition rate on tyrosine kinase” value was 58.2%.

For `Cc1ccc(NS(=O)(=O)c2ccc3c(c2)C(=Cc2nc4ccccc4[nH]2)C(=O)N3)cc1` [Indo 8, 3-(1H-benzimidazol-2-methylene)-5-(4-methylphenylaminosulfo)-2-indolone], the pIC50 in assay [1] is 4.60; in assay [2] it was 5.25; in [3], 5.51; in assay [4], 5.74; in [5], 5.79; in assay [6], 5.69. Further, the pIC50 was 5.63 in assay [7]; 5.18 in assay [8]; 5.17 in assay [9]; 5.77 in assay [10]; 5.80 in assay [11]; 5.52 in assay [12]. Moreover, the negative-log IC50 (pIC50) in assay [13] was 5.82. Also, the “Inhibition rate on tyrosine kinase” value in [14] amounted to 49.9%.
